Reference: patent US20230158057A1, “COMPOSITIONS AND METHODS FOR THE TREATMENT OF PAIN” (Duke University, priority 2020, published 2023)

Legend:
[1] = test system: IFN-α; experiment: IFN-α ELISA on DRGs incubated ex vivo or cultured with ADU-S100; assay type: cell-based, mouse
Description: ELISA: Mouse high-sensitivity IFN-α ELISA kit (42115-1) and IFN-β ELISA kit (42410-1) were purchased from PBL Assay Science and performed on serum, DRG lysate, or cell culture medium according to the manufacturer's instructions. Serum was obtained from whole blood through cardiac puncture at the time of euthanasia, followed by incubation for 30 minutes at 35° C. to promote clotting. Subsequently, samples were centrifuged at 4° C. at 2,500 xg for 15 minutes, followed by careful isolation of serum (supernatant). For ELISA on cell culture medium, samples were first concentrated approximately 10-fold using Amicon centrifugal filters (Millipore Sigma, UFC8030). DRGs were lysed by mechanical homogenization in a pH 7.4 CHAPS lysis buffer (FivePhoton Biochemicals, CIB-1-7.4-60) supplemented with a protease inhibitor cocktail (Millipore Sigma, 11697498001) and phosphatase inhibitor cocktail (FivePhoton Biochemicals, PIC1). For DRG lysate, Pierce BCA (ThermoFisher, 23225) assays were performed according to the manufacturer's instructions to quantify protein concentration, and ELISA results are reported normalized to protein concentration (pg/mg DRG tissue). To measure IFN-β levels in cerebrospinal fluid (CSF) isolated by spinal catheter from NHPs, we utilized a cynomolgus IFN-β ELISA kit (PBL Assay Science, 46415-1), which was performed using 50 μl CSF according to the manufacturer's instructions. Standard curves were performed in all experiments and values interpolated using GraphPad Prism version.

[2] = test system: naïve mice or mice following spared nerve injury (SNI); experiment: Repeated i.t. STING agonist administration, nerve injury (SNI) model; assay type: in vivo, mouse
Description: Mouse pain models: The chemotherapy-induced peripheral neuropathy (CIPN) model of chronic neuropathic pain was established as we have done previously, using 8-10-week-old CD-1 (strain #022, Charles River) mice injected with paclitaxel (2 mg/kg i.p.) every other day, with 4 injections total. The chronic constriction injury (CCI) model of neuropathic pain was also produced using 8-10-week-old CD-1 under isoflurane anesthesia. Briefly, the right sciatic nerve was exposed above the hip and two ligatures (7-0 Prolene) were placed around the nerve 1 mm apart located proximal to the trifurcation. Ligatures were loosely tied until a subtle flick of the ipsilateral hind limb was observed. CD-1 mice were also used to establish the SNI model, which was generated by tightly ligating the tibial and common peroneal nerves followed by transection and removal of a ˜3 mm portion of the nerve. The sural nerve was left intact and contact or stretching of this nerve was avoided . To establish the syngeneic bone cancer pain (BCP) model, 8-10-week-old C57BL/6J mice (strain #000664, Jackson Labs) were utilized, as the Lewis lung carcinoma cell line LLC1 (LL/2; ATCC CRL-1642) was originally generated in C57BL/6J mice. Mice were anesthetized with isoflurane and the left leg was shaved, disinfected with 10% povidone-iodine, and a 1 cm superficial incision was made to expose the patellar ligament. A 25-gauge needle was inserted at the intercondylar notch of the left femur into the femoral cavity, followed by needle replacement with a 10 μl Hamilton syringe microinjector containing a 2 μl suspension of LLC cells (2×10^5 cells) followed by a 2 μl gelatin sponge solution to enable closure of the injection site. All mice were housed and monitored in accordance with AAALAC standards and Duke IACUC guidelines that pertained to each model.
Reflexive-based sensory testing in mice: All behavioral testing in mice was performed in a specialized humidity- and light-controlled mouse behavior facility maintained at 21-24° C., with testing conducted between the hours of 8:00-16:00. Mice were habituated to the testing environment for at least 2 days prior to baseline testing. All tests were performed by an experimenter who was blinded to experimental conditions, including genotypes and drug treatment. For multi-day experiments using STING agonists, mice were tested in the same room at approximately the same time each day. To measure mechanical sensitivity, mice were confined to individual chambers with non-transparent borders on an elevated mesh rack, preventing mice from visualizing or interacting with one another during the testing period. […] We determined the 50% paw withdrawal threshold using the up-down method. […]

[3] = test system: PINP; experiment: Serum PINP ELISA; assay type: in vivo, mouse; settings: d17
Description: ELISA. Mouse high-sensitivity IFN-α ELISA kit (42115-1) and IFN-β ELISA kit (42410-1) were purchased from PBL Assay Science. Mouse CTX-I ELISA kit (AC-06F1) and mouse PINP ELISA kit (AC-33F1) were purchased from Immunodiagnostic Systems. ELISA was performed using culture medium, serum, and bone marrow lysates. Serum was obtained from whole blood that was collected from a submandibular vein via facial vein puncture, coagulated for 30 minutes at room temperature, followed by centrifugation (2,000 ×g for 10 min, 4° C.) and collection of the supernatant (serum). Bone marrow was homogenized in a lysis buffer containing protease inhibitors at 4° C. for 30 minutes. ELISA was conducted in accordance with the manufacturer's instructions. A standard curve was performed for each experiment.

Structure (SMILES)	IFN-α in culture medium ([1]; cultured DRGs from STING-WT mice)	increase in IFN-α in STING-KO and STING-cKO DRGs ([1]; ex vivo incubation)	IFN-α levels in DRG lysate ([1]; ex vivo incubation 30 μM, 2 h, WT mice)	tolerance on repeated administration ([2]; repeated i.t. 35 nmol, naïve mice or SNI mice)	SNI-induced astrogliosis ([2]; repeated i.t. administration, SNI)	cold allodynia at later timepoints ([2]; repeated i.t., starting at D12)	mechanical allodynia at later timepoints ([2]; repeated i.t., starting at D12)	serum PINP levels [3]
Nc1ncnc2c1ncn2[C@@H]1O[C@@H]2COP(=O)([S-])O[C@@H]3[C@H](O)[C@@H](COP([O-])(=S)O[C@H]2[C@H]1O)O[C@H]3n1cnc2c(N)ncnc21.[Na+].[Na+] (stereo partly drawn) [ADU-S100, (2′-5′)-[P(R)]-5′-O-[(R)-hydroxymercaptophosphinyl]-P-thioadenylyl-adenosine cyclic dinucleotide]	increased IFN-α and IFN-β in the culture medium	abolished in STING-KO mice and largely abolished in STING-cKO mice	IFN-α levels in DRG lysate were increased					
Cc1ccc2c(=O)c3cccc(CC(=O)O)c3oc2c1C [DMXAA, 2-(5,6-dimethyl-9-oxo-9H-xanthen-4-yl)acetic acid]				did not show signs of tolerance	attenuated SNI-induced astrogliosis	significantly reduced	significantly reduced	had no effect on serum PINP levels
